In ChEMBL document CHEMBL1649218, “New treatment option for second-stage African sleeping sickness: in vitro and in vivo efficacy of aza analogs of DB289” (Antimicrob Agents Chemother, 2009):
≈ marks a conversion by molar mass, not a printed value. Calls of active or inactive are those of the source. The calls are words filed in the database; no cut-off is given here.

Assays:
[1] = tested on: Trypanosoma brucei rhodesiense; test: Antitrypanosomal activity against wild-type Trypanosoma brucei rhodesiense STIB900 by Alamar blue assay; assay type: functional, organism-based
[2] = tested on: Trypanosoma brucei rhodesiense; test: Antitrypanosomal activity against pentamidine-resistant Trypanosoma brucei rhodesiense STIB900 by Alamar blue assay; assay type: functional, organism-based
[3] = tested on: Trypanosoma brucei rhodesiense; test: Antitrypanosomal activity against melasoprol-resistant Trypanosoma brucei rhodesiense STIB900 by Alamar blue assay; assay type: functional, organism-based
[4] = tested on: Trypanosoma brucei gambiense; test: Antitrypanosomal activity against Trypanosoma brucei gambiense K03048 by Alamar blue assay; assay type: functional, organism-based
[5] = tested on: Trypanosoma brucei gambiense; test: Antitrypanosomal activity against Trypanosoma brucei gambiense ITMAP141267 by Alamar blue assay; assay type: functional, organism-based
[6] = tested on: Trypanosoma brucei gambiense; test: Antitrypanosomal activity against Trypanosoma brucei gambiense STIB930 by Alamar blue assay; assay type: functional, organism-based
[7] = tested on: Trypanosoma brucei brucei; test: Antitrypanosomal activity against Trypanosoma brucei brucei BS221 by Alamar blue assay; assay type: functional, organism-based
[8] = tested on: Trypanosoma brucei brucei; test: Antitrypanosomal activity against Trypanosoma brucei brucei AT1KO by Alamar blue assay; assay type: functional, organism-based
[9] = tested on: Trypanosoma brucei rhodesiense; test: Ratio of IC50 for pentamidine-resistant Trypanosoma brucei rhodesiense STIB900 to IC50 for wild-type Trypanosoma brucei rhodesiense STIB900; assay type: functional
[10] = tested on: Trypanosoma brucei rhodesiense; test: Ratio of IC50 for melasoprol-resistant Trypanosoma brucei rhodesiense STIB900 to IC50 for wild-type Trypanosoma brucei rhodesiense […]; assay type: functional
[11] = Ratio of IC50 for Trypanosoma brucei gambiense K03048 to IC50 for wild-type Trypanosoma brucei rhodesiense STIB900; assay type: functional
[12] = Ratio of IC50 for Trypanosoma brucei gambiense ITMAP141267 to IC50 for wild-type Trypanosoma brucei rhodesiense […]; assay type: functional
[13] = Ratio of IC50 for Trypanosoma brucei gambiense STIB930 to IC50 for wild-type Trypanosoma brucei rhodesiense […]; assay type: functional
[14] = tested on: Trypanosoma brucei brucei; test: Ratio of IC50 for Trypanosoma brucei brucei AT1KO to IC50 for Trypanosoma brucei brucei BS221; assay type: functional
[15] = tested on: Trypanosoma brucei gambiense; test: Ratio of IC50 for Trypanosoma brucei gambiense K03048 to IC50 for Trypanosoma brucei gambiense STIB930; assay type: functional
[16] = tested on: Trypanosoma brucei rhodesiense; test: Antitrypanosomal activity against wild-type Trypanosoma brucei rhodesiense STIB900 infected in NMRI mouse assessed as survival of mouse at 20 mg/kg, ip for 4 days; assay type: functional; conditions: route intraperitoneal
[17] = tested on: Trypanosoma brucei rhodesiense; test: Antitrypanosomal activity against wild-type Trypanosoma brucei rhodesiense STIB900 infected in NMRI mouse assessed as survival of mouse at 5 mg/kg, ip for 4 days; assay type: functional; conditions: route intraperitoneal
[18] = tested on: Trypanosoma brucei brucei; test: Antitrypanosomal activity against Trypanosoma brucei brucei GVR35 infected in NMRI mouse CNS model assessed as cure from infection at 20 mg/kg, ip for 5 days; assay type: functional, organism-based; parameters: dose 20 mg/kg
[19] = tested on: Trypanosoma brucei brucei; test: Antitrypanosomal activity against Trypanosoma brucei brucei GVR35 infected in NMRI mouse CNS model assessed as survival of mouse at 20 mg/kg, ip for 5 days; assay type: functional; conditions: route intraperitoneal
[20] = tested on: Trypanosoma brucei brucei; test: Antitrypanosomal activity against Trypanosoma brucei brucei GVR35 infected in NMRI mouse CNS model assessed as survival of mouse at 10 mg/kg, ip for 10 days; assay type: functional; conditions: route intraperitoneal
Mus musculus = test: Toxicity in NMRI mouse CNS model at 25 mg/kg, ip for 10 days; assay type: organism-based; parameters: dose 25 mg/kg, route intraperitoneal; conditions: in vivo, 240 h
[21] = tested on: Trypanosoma brucei rhodesiense; test: Antitrypanosomal activity against wild-type Trypanosoma brucei rhodesiense STIB900 infected in NMRI mouse assessed as cure from infection at 75 mg/kg, po for 4 days; assay type: functional, organism-based; parameters: dose 75 mg/kg
[22] = tested on: Trypanosoma brucei rhodesiense; test: Antitrypanosomal activity against wild-type Trypanosoma brucei rhodesiense STIB900 infected in NMRI mouse assessed as survival of mouse at 75 mg/kg, po for 4 days; assay type: functional
[23] = tested on: Trypanosoma brucei rhodesiense; test: Antitrypanosomal activity against wild-type Trypanosoma brucei rhodesiense STIB900 infected in NMRI mouse assessed as survival of mouse at 50 mg/kg, po for 4 days; assay type: functional
[24] = tested on: Trypanosoma brucei rhodesiense; test: Antitrypanosomal activity against wild-type Trypanosoma brucei rhodesiense STIB900 infected in NMRI mouse assessed as cure from infection at 15 mg/kg, po for 4 days; assay type: functional, organism-based; parameters: dose 15 mg/kg
[25] = tested on: Trypanosoma brucei rhodesiense; test: Antitrypanosomal activity against wild-type Trypanosoma brucei rhodesiense STIB900 infected in NMRI mouse assessed as survival of mouse at 15 mg/kg, po for 4 days; assay type: functional

`N=C(N)c1ccc(-c2ccc(-c3ccc(C(=N)N)cc3)o2)cc1` [FURAMIDINE] showed an IC50 [1] of 1 ng/mL (≈ 0.00329 µM), an IC50 [2] of 14.3 ng/mL (≈ 0.047 µM) and an IC50 [3] of 19 ng/mL (≈ 0.0624 µM). For the same molecule, the IC50 [4] was 4.2 ng/mL (≈ 0.0138 µM), the IC50 [5] was 3.1 ng/mL (≈ 0.0102 µM) and the IC50 [6] was 5.1 ng/mL (≈ 0.0168 µM). For the same molecule, the IC50 [7] was 1.2 ng/mL (≈ 0.00394 µM), the IC50 [8] was 15.8 ng/mL (≈ 0.0519 µM) and the “Ratio IC50” value [9] was 14.7. For the same molecule, the “Ratio IC50” value [10] was 19.5, the Ratio IC50 [11] was 4.3 and the Ratio IC50 [12] was 3.2. For the same molecule, the Ratio IC50 [13] was 5.3, the “Ratio IC50” value [14] was 13.1 and the “Ratio IC50” value [15] was 14. For the same molecule, the MSD [16] was over 57.75 days, the MSD [17] was over 46 days and the Activity [18] was “inactive”. The MSD [19] was over 132.3 days, the MSD [20] was over 112 days and the Activity (Mus musculus) was “Toxic”.

In the case of `N/C(=N\O)c1ccc(-c2ccc(-c3ccc(/C(N)=N\O)cn3)o2)nc1`, the Activity [21] is reported as “inactive” and the MSD [22] is reported as 18 days.

With `CO/N=C(/N)c1ccc(-c2ccc(-c3ccc(/C(N)=N/O)cc3)o2)cc1` the MSD [23] was over 56 days, the Activity [24] was “inactive” and the MSD [25] was 30.25 days.
